In patent US10940201B2, “Nucleic acid derivative having immunostimulatory activity” (Shionogi & Co., Ltd., priority 2015, dated 2021):
In the oligonucleotide strings, read from the 5' end, every base follows the letter of its sugar. An asterisk marks phosphorothioate; unmarked linkages are phosphodiester. Other units and linkages are bracketed, terminal groups are in braces. A string of capitals states the bases alone. d = 2'-deoxy (DNA)

Key:
TRP2-specific CTL [1] = assay: CTL inducibility of TRP2 peptide vaccine with adjuvant (tetramer staining); format: in vivo, C57BL/6JJcl mice
Description: (§1) C57BL/6JJcl mice (6 to 8 weeks old) were purchased from CLEA Japan, Inc.
(§2) an adjuvant of the present invention or the well-known CpG ODN
The specific immunity was induced by vaccinating a mouse twice at 7 days intervals. Each vaccine was that 100 μg of TRP2 peptide, and 1.57 or 4.71 nmol of an adjuvant of the present invention or well-known CpG ODN, were dissolved in 1×PBS. 100 μL of the vaccine was administered subcutaneous injection on the flank of a mouse.
100 μL of the emulsion vaccine was administered subcutaneous injection on the flank of a mouse twice at 7 days intervals.
(§3) On 7 days after second vaccination, the blood was collected, red blood cells was removed by BD Pharm Lyse (BD pharmingen), and the white blood cells were suspended in FACS buffer (1% fetal bovine serum, 2 mM PBS with EDTA). Anti-mouse CD16/32 monoclonal antibody (BioXcell) was added thereto, and Fc receptor blocking was carried out at 4° C. for 30 minutes. […] Then, staining was carried out with DAPI (Invitrogen) and the cells were washed twice with FACS buffer. It was resuspended in FACS buffer and analyzed by FACS verse Flow Cytometer (BD bioscience) and FAC Suite software (BD bioscience). For analysis, after DAPI negative fraction was gated, white blood cells fraction were provided using forward and side-way scattering as indicators. In the white blood cells fraction, both positive cells of Alexa 647-CD8 and PE-H-2Kb Tetramer were defined as CTLs. CTL ratio in white blood cells was used for evaluation.
After calculation of the average CTL inducibility of each group per experiment, the ratio against average value of CTL inducibility of ssCpG ODN, ODN1826 (SEQ-1) or ODN2006 (SEQ-49) as a control was calculated.
In the case of an adjuvant comprising ODN1826 (Average of CTL inducibility of the adjuvant group)/(Average of CTL inducibility of the ODN1826 group)=the ratio against average value In the case of an adjuvant comprising ODN2006 (Average of CTL inducibility of the adjuvant group)/(Average of CTL inducibility of the ODN2006 group)=the ratio against average value
CTL inducibility of each adjuvant was shown when CTL inducibility of ssCpG ODN was taken as 1, so the bigger value means the higher CTL inducibility.

[2] = tested on: antigen-specific CTL (OVA peptide); assay: CTL inducibility of OVA peptide vaccine with adjuvant (tetramer staining); format: in vivo, C57BL/6JJcl mice; settings: Table 32, 1.57 nmol/head, ODN1826 (SEQ-1) group = 1
Description: as §1, §2
The specific immunity was induced by vaccinating a mouse twice at 7 days intervals. […] 100 μL of the vaccine was administered subcutaneous injection on the flank of a mouse.
as §3, with “CTL ratio in white blood cells was used for evaluation.” left out
After calculation of the average CTL inducibility of each group per experiment, the ratio against average value of CTL inducibility of ssCpG ODN, ODN1826 (SEQ-1) or ODN2006 (SEQ-49) as a control was calculated. […]

B16F10 cells = assay: Anti-tumor effect of TRP2 peptide vaccine using an adjuvant; format: in vivo, mouse
Description: After immunization by TRP2 peptide vaccine, B16F10 cells (ATTC) which is mouse melanoma expressing TRP2 protein was subcutaneously transplanted to evaluate anti-tumor effect. […] The major and minor axes of the engrafted tumor were measured every 2 to 3 days, and the tumor volume was calculated by the formula: (major axis×minor axis^2)/2 Calculation method for indicators of anti-tumor effect For the adjuvant comprising ODN1826 100·(average tumor volume of adjuvant group)/(average tumor volume of ODN1826 group) For the adjuvant comprising ODN2006 100·(average tumor volume of adjuvant group)/(average tumor volume of ODN2006 group)

tumor growth = assay: Anti-tumor effect (tumor inhibition rate) of OVA peptide vaccine with adjuvant; format: in vivo, mouse; settings: Table 32, 1.57 nmol/head, compared to ODN1826 (SEQ-1)
Description: After immunization by TRP2 peptide vaccine, B16F10 cells (ATTC) which is mouse melanoma expressing TRP2 protein was subcutaneously transplanted to evaluate anti-tumor effect. In a similar method to Example 3 A), on the next day that tetramer-positive ratio in peripheral blood of mouse vaccinated twice every 7 days was observed, B16F10 cells (1×10^5 cells/mouse) were subcutaneously transplanted in the right shoulder. The major and minor axes of the engrafted tumor were measured every 2 to 3 days, and the tumor volume was calculated by the formula: (major axis×minor axis^2)/2 Calculation method for indicators of anti-tumor effect For the adjuvant comprising ODN1826 100·(average tumor volume of adjuvant group)/(average tumor volume of ODN1826 group) For the adjuvant comprising ODN2006 100·(average tumor volume of adjuvant group)/(average tumor volume of ODN2006 group)
The compound with bigger value has the stronger anti-tumor activity.
The activity of an adjuvant of the present invention having a lipid comprising two acyl chains comprising 10 to 20 carbon atoms as a ligand was examined with OVA peptide.

recombinant PCRV protein = assay: Inducibility of antibody production in immunization by PCRV antigen vaccine (antibody titer); format: in vivo; settings: A/J mice, recombinant PCRV protein with adjuvant, intradermal; antiserum Day 33; FIG. 15
Description: Perv nucleotide sequence (SEQ ID NO: 48) derived from Pseudomonas aeruginosa Strain PAO1 was cloned at NdeI-XhoI site in pET21a vector, and Escherichia coli strain BL21 (DE3) was transformed with the prepared plasmid. Strain perV-BL21 (DE3) was cultured in 500 mL of LB/Ampicillin liquid medium at 37° C., and 200 μL of 0.1 M IPTG was added when OD600 became 0.5 to induce expression of recombinant PCRV protein. After culturing at 16° C. for 18 hours, bacteria was separated by a centrifuge, and 15 ml of Buffer A (50 mM Tris-HCl (pH8.0), 0.2M NaCl) comprising 0.5% lysozyme (SIGMA Corporation) was added. After putting at 4° C. for 30 minutes, ultrasonic treatment was carried out. After centrifugation at 12,000 rpm for 10 minutes, soluble fraction was obtained. 1 mL of Ni-NTA agarose gel (QIAGEN) was added to Polyprep column (BIO-RAD Laboratories, Inc) and equilibrated with 10 mL of Buffer A. Soluble fraction was added to the column and passed. […] The resulting recombinant PCRV protein was measured the concentration with BCA assay kit (PIERCE) and kept at −80° C. […]
Antibody titer was measured as blow. […] 20 μL/well of 0.5 N sulfuric acid (Nacalai) was added, and absorbance at 450 nm was measured with a plate reader. The dilution ratio when absorbance at 450 nm is 1.0 was calculated and put as an antibody titer.

human TLR9 = target: T1, human TLR9 (Homo sapiens, UniProt Q9NR96); assay: Reporter assay with HEK-Blue hTLR9 cells (TLR9 agonist activity); format: cell-based; settings: Table 30; CpG oligonucleotides except for ODN2006 and their double strands; read-out: EC50
T1 construct: host or cells: HEK-Blue hTLR9 cells (HEK293)
T1 sequence (Q9NR96 26-1032): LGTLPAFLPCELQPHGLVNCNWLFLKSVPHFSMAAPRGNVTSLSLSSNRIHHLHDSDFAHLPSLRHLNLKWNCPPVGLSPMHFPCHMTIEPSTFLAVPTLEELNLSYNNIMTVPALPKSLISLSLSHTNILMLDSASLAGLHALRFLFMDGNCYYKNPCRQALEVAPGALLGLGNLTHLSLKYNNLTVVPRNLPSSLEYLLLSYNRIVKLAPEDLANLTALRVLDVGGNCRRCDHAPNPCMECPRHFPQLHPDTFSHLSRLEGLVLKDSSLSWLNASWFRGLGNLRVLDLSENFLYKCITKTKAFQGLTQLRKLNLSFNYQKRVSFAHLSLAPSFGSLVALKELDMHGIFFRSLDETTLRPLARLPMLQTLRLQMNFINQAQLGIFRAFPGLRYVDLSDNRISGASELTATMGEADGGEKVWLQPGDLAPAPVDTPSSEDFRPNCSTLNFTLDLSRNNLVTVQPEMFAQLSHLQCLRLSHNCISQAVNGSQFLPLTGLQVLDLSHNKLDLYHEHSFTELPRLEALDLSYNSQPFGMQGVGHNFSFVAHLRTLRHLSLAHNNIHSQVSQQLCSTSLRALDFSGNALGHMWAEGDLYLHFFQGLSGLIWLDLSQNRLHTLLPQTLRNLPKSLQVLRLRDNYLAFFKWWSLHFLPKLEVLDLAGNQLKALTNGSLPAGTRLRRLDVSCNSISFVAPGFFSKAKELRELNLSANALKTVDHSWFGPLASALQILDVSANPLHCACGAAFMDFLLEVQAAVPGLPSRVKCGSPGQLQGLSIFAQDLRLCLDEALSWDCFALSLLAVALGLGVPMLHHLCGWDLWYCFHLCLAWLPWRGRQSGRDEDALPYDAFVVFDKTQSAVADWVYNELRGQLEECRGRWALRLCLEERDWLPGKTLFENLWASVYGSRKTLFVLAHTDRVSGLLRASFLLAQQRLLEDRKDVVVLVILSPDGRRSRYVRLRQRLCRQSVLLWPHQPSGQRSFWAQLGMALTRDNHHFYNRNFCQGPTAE
Description: HEK-Blue™ hTLR9 cells (Invivogen) used for the reporter assay were made by introducing human TLR9 gene and a reporter gene that secretory alkaline phosphatase gene bound to NF-kB-AP-1 binding region sequence in HEK293 cells, and are the cells stably expressing the both genes. 3.6×10^4 of the cells suspended in HEK-Blue™ Detection ([…]) comprising substrates against the alkaline phosphatase were seeded on the 96 well plate, and 3 nM to 30 μM of a lipid binding double-stranded oligonucleotide of the present invention, the known CpG oligonucleotides (ODN2006, SEQ-49), or adjuvant based on design in Patent Document 1, i.e., ssCpG ODN introducing a lipid ligand (SEQ-142, 143 or 144) was added. After culturing in a 37° C., 5% CO2 incubator for 16 hours, absorbency at 620 nm was measured using the culture supernatant developed a color. The result value was analyzed with TIBCO Spotfire software, and calculated the 50% effective concentration (EC50) of each oligonucleotide.

TRP2-specific CTL [3] = assay: CTL inducibility of TRP2 peptide vaccine with adjuvant (tetramer staining); format: in vivo, C57BL/6JJcl mice; remark: listed apart in the source
[4] = Table 56, 4.71 nmol, SEQ-256 (D35-CpG) group = 1
[5] = Table 65, 4.71 nmol, respective ssCpG ODN (ODN2216, ODN684, D-LS01) group = 1

Question: What does the source list for ODN1826 [SEQ-1]?
Answer: Ratio of average value of antigen-specific CTL (TRP2-specific CTL [1]; Table 31, 1.57 nmol/head, ODN1826 (SEQ-1) group = 1): 1.00; Ratio of average value of antigen-specific CTL (TRP2-specific CTL [1]; Table 33, 1.57 nmol/head, ODN1826 (SEQ-1) group = 1): 1.00; Ratio of average value of antigen-specific CTL (TRP2-specific CTL [1]; Table 34, 1.57 nmol/head, ODN1826 (SEQ-1) group = 1): 1.00; Ratio of average value of antigen-specific CTL (TRP2-specific CTL [1]; Table 35, 1.57 nmol/head, ODN1826 (SEQ-1) group = 1): 1.00; Ratio of average value of antigen-specific CTL (TRP2-specific CTL [1]; Table 36, 1.57 nmol/head (Montanide 100 μL), ODN1826 (SEQ-1) group = 1): 1.00; Ratio of average value of antigen-specific CTL (TRP2-specific CTL [1]; Table 37, 1.57 nmol/head, ODN1826 (SEQ-1) group = 1): 1.00; CTL inducibility (in words) (TRP2-specific CTL [1]; adjuvants comprising ODN1826): TRP2-specific CTL was induced; Ratio of average value of antigen-specific CTL [2]: 1.00; effect of inhibition on tumor progression of B16F10 cells (in words) (B16F10 cells): little effect of inhibition on tumor progression of B16F10 cells; Tumor inhibition rate (Day 14 after transplantation) (B16F10 cells; Table 37, 1.57 nmol/head, compared to ODN1826 (SEQ-1)): 0.00%; Tumor inhibition rate (Day 14 after transplantation) (tumor growth): 0.00%

Question: With “PCRV protein: recombinant PCRV protein C-end HIS derived from Pseudomonas aeruginosa Strain PAO1, antigen given without adjuvant as control” as the substance, how does the “antibody titer (dilution ratio when absorbance at 450 nm is 1.0)” value (recombinant PCRV protein) read?
Answer: 1.3×10^5

Question: With “SEQ-253 (sense dA*dT*dC*dG*dA*dC*dT*dC*dT*dC*dG*dA*dG*dC*dG*dT*dT*dC*dT*dC)” as the substance, how does the EC50 (human TLR9) read?
Answer: 2.87 µM

Question: Which EC50 (human TLR9) does the source give for “SEQ-256 (sense dG*dGdTdGdCdAdTdCdGdAdTdGdCdAdGdGdGdG*dG*dG)” here?
Answer: 3420 µM

Question: And the “Ratio of average value of antigen-specific CTL” value (“Ratio … of antigen-specific CTL” for short) (TRP2-specific CTL [3]; [4])?
Answer: 1.00

Question: Which EC50 (human TLR9) does the source give for “SEQ-258 (sense GGTGCATCGATGCAGGGGGG; antisense CCCCCCTGCATCGATG; phosphorothioate, 5' L4-18 lipid, chemistry not fully specified)” here?
Answer: 16.3 µM

Question: And the “Ratio … of antigen-specific CTL” value (TRP2-specific CTL [3]; [4])?
Answer: 2.46

Question: Which results are given for “SEQ-342 (dT*dC*dG*dA*dC*dG*dT*dT*dC*dG*dT*dC*dG*dT*dT*dC*dG*dT*dC*dG*dT*dT*dC)”?
Answer: EC50 (human TLR9): 2.34 µM; Ratio of average value of antigen-specific CTL (TRP2-specific CTL [3]; [5]): 1.00

Question: With “SEQ-345 (dT*dC*dG*dC*dG*dA*dC*dG*dT*dT*dC*dG*dC*dC*dC*dG*dA*dC*dG*dT*dT*dC*dG*dG*dT*dA)” as the substance, how does the EC50 (human TLR9) read?
Answer: 6.28 µM

Question: And the “Ratio … of antigen-specific CTL” value (TRP2-specific CTL [3]; [5])?
Answer: 1.00

Question: For “SEQ-351 (dT*dC*dG*dT*dC*dG*dT*dT*dT*dT*dC*dG*dG*dC*dG*dC*dG*dC*dG*dC*dC*dG)”, which EC50 (human TLR9) is on record?
Answer: 11.6 µM

Question: With “SEQ-354 (dT*dC*dG*dT*dC*dG*dT*dC*dG*dT*dT*dC*dG*dA*dA*dC*dG*dA*dC*dG*dT*dT*dG*dA*dT)” as the substance, how does the EC50 (human TLR9) read?
Answer: 16900 µM

Question: What about the “Ratio … of antigen-specific CTL” value (TRP2-specific CTL [1]; Table 66, 4.71 nmol, SEQ-354 (ODN M362) group = 1) of the same substance?
Answer: 1.00
